The results in this text go back to US20120052079A1, “Compositions, Kits, and Methods for Predicting Anti-Cancer Response to Anthracyclines” (Dana-Farber Cancer Institute, Inc., priority 2010, published 2012).

Type in all cases: cell-based, human
The test system of assay [1] is BT549 cells. Description: Cathepsin release and Bid, caspase 3, PARP cleavage by immunoblot. The settings on record: for LAPTM4B knockdown-induced Bid truncation and apoptosis: BT549 pretreated with cathepsin inhibitors. How it is done: Cytosolic extraction was performed using the detergent digitonin which permeabilizes cholesterol-rich membranes such as plasma membrane, leaving the cholesterol-poor membranes of lysosomes and mitochondria more or less intact. Cells were exposed to an extraction buffer (250 mM sucrose, 20 mM Hepes, 10 mM KCl, 1.5 mM MgCl2, 1 mM EDTA, 1 mM EGTA, and 1 mM Pefabloc, pH 7.5) containing 25 μg/ml digitonin for 20 min on ice, inverting the tubes every 2 min. The extraction buffer was collected and proteins were precipitated by addition of 5% trichloric acid on ice for 10 min and centrifuged at ˜20,800×g for 15 min to obtain the protein pellet. The pellet was dissolved in lysis buffer.
Tumor cell line lysates or cytosols were fractionated in 7, 12 or 14% SDS-PAGE, electrophoretically transferred to a nitrocellulose membrane and probed with primary antibodies (monoclonal Anti-β-Actin antibody (Sigma), anti-Bid (BD PharMingen), anti-caspase 3, anti-H is, anti-LC3 and anti-PARP antibodies (Cell Signaling Technology), and anti-cathepsin B, anti-cathepsin D, anti-p62, HRP-conjugated secondary antibodies and FITC-conjugated secondary antibodies (Abcam). The probed proteins were visualized using the ECL Western blotting detection system from Pierce according to the manufacturer's instructions. Band densities were quantified on a AlphaImager HP imaging system (Cell Biosciences).
A general note: Immunoblotting shows a protein as a band on a membrane.

The subject of assay [2] is MDA468 cells. The experiment in a line: Autophagy markers LC3 and p62 by immunoblot, LAPTM4B overexpression. The settings on record: MDA468 with stable LAPTM4B over expression. The source says: Band densities were quantified on a AlphaImager HP imaging system (Cell Biosciences).
The subject of assay [3] is MDA-MB-231 (MDA231), HCC38 and CAMA-1. Description: Cell growth assay, drug sensitivity after LAPTM4B/YWHAZ siRNA knockdown. The settings on record: siRNA knockdown vs control siRNA. How it is done: Gene-specific and negative control oligonucleotides (Stealth™ Select RNAi, Invitrogen) were transfected using the Lipofectamine™ RNAi MAX protocol from Invitrogen. Three gene-specific oligonucleotide siRNAs were tested for each gene (LAPTM4b siRNA1: 5′-[…]-3′ and 3′-[…]-5′; LAPTM4b siRNA2: 5′-[…]-3′ and 3′-[…]-5′; LAPTM4b siRNA3: 5′-[…]-3′ and 3′-[…]-5′; LAPTM4b shRNA: Top strand, […], Bottom strand, […]; YWHAZ siRNA1: 5′-[…]-3′ and 3′-[…]-5′; YWHAZ siRNA2: 5′-[…]-3′ and 3′-[…]-5′; and YWHAZ siRNA3: 5′-[…]-3′ and 3′-[…]-5′). Transfections were performed in triplicate and the experiment was repeated four times to estimate the effect and standard deviation from the mean. Because specific antibodies were not available for the 12 genes tested, the effectiveness of siRNA knockdown by each oligonucleotide was determined by qRT-PCR assay of mRNA levels according to methods described herein.
(§1) Viable cell number was quantified using CellTiter 96® Aqueous One Solution Cell Proliferation Assay (Promega). Results are reported as optical density at 490 nm wavelength. Cells (4,000 well^−1) were seeded into 96-well plates in triplicate. siRNA transfections were performed 24 h after cell seeding. Chemotherapeutic drugs (daunorubicin, doxorubicin, paclitaxel, and cisplatin) were added 24 h after cell seeding or siRNA transfection. Cells were exposed to a series of concentrations of individual drugs for additional 48 h. Results are presented as the percentage of viable cells in drug-treated wells vs. media-treated control wells and plotted as a drug-dose dependent cell survive curve. The dose of drug causing a fifty percent reduction of viable cells (IC50) determined drug sensitivity. Drug-induced apoptosis was evaluated 48 h after drug treatment (doxorubicin at 1 μM or cisplatin at 25 μM) following siRNA transfection by detection of active caspase 3 and cleaved poly(ADP-ribose) polymerase (PARP) by Western blot analysis using caspase 3- and PARP-specific antibodies (Cell Signaling Technology), respectively.

The test system of assay [4] is MDA-MB-231 (MDA231) and BT549 cells. The experiment in a line: Drug-induced apoptosis, Western blot for active caspase 3 and cleaved PARP. The settings on record: doxorubicin 1 μM or cisplatin 25 μM, 48 h. How it is done: as §1
Assay [5] deals with HMEC cells. Description: Cell growth assay (CellTiter 96), drug IC50 in HMEC transfected with LAPTM4B-HA or YWHAZ-HA. The settings on record: for effect of exogenous LAPTM4B or YWHAZ on sensitivity to drug: HMEC expressing exogenous LAPTM4B or YWHAZ.
Excerpt: The full length LAPTM4B and YWHAZ cDNAs linked to an HA tag were cloned into the pWZL (Boehm et al. (2005) Mol. Cell. Biol. 25, 6464-6474) and pBabe vectors, respectively, and packaged using the Phoenix™ Retroviral System from Orbigen. pWZL-LAPTM4B HA and pBabe-YWHAZ-HA were introduced into HMEC cells by retroviral infection and stably selected with blasticidin and puromycin, respectively.
as §1

Assay [6] concerns MDA-MB-231 cells. Description: Cellular distribution of doxorubicin (autofluorescence). The settings on record: 0.5 μM doxorubicin; detectable within 12 h to 24 h, sustained at 48 h.
Assay [7] deals with BT549 cells. The experiment in a line: Cellular distribution of doxorubicin (autofluorescence, confocal). How it is done: Twenty-four h after transfection with specific siRNA or control oligos, cells were challenged with 0.5 μM doxorubicin in complete medium for 24 h. After 24 h, the drug was removed and cells were cultured in fresh drug-free medium and examined at 36 and 48 h time points. At each time point, cells were washed twice in PBS, and fixed for 5 min in 3.0% paraformaldehyde and permeabilized in 0.1% Triton X-100 for 5 min. Following washing with PBS, cells were mounted in Prolong Gold® anti-fade reagent with DAPI (Invitrogen). Subcellular localization of doxorubicin was viewed by the Rhodamine (Cy3) channel and nuclear staining was viewed by the DAPI channel on a Zeiss HAL100 fluorescence microscope.
Forty-eight hours after transfection with specific siRNA or scramble control oligonucleotide, cells were treated with 0.1 μM doxorubicin in complete medium for 24 hours. After 24 hours of drug exposure, the drug was removed and cells were cultured in fresh drug-free medium and examined 24 hours later. Cells were washed, fixed and stained with DAPI as described in Li et al. (2010) Nat. Med., 16, 214-218. Subcellular localization of doxorubicin autofluorescence (excited wave: 480 nm; emitted wave: 560-620 nm) and lysosomes indicated by LysoTracker DND-26 (excited wave: 504 nm; emitted wave: 509-540 nm) was examined on a Leica SP5X Laser Scanning Confocal Microscope with a white light laser.

Where [8] appears, read: BT549 pretreated with pan-caspase inhibitor.

Take `CCOC(=O)[C@H]1O[C@@H]1C(=O)N[C@@H](CC(C)C)C(=O)NCCC(C)C` (relative stereo) [EST, trans-epoxysuccinyl-L-leucylamindo-3-methylbutane ethyl ester]: in assay [1], the “LAPTM4B knockdown-induced Bid truncation and apoptosis” value is “protected”.

Turning to `CCN(CC)CCCC(C)Nc1ccnc2cc(Cl)ccc12` (stereo not drawn) [chloroquine], in assay [2], the “starvation-induced autophagy (higher LC3II, lower p62) by LAPTM4B over expression” value was “blocked”.

For the compound `N.N.[Cl][Pt][Cl]` [cisplatin], the “sensitivity to drug after specific knockdown of LAPTM4B and YWHAZ” value (shortened to “sensitivity to drug … of LAPTM4B and YWHAZ”) in assay [3] is “weaker or no effect”. Moreover, the “drug-induced apoptosis after knockdown of LAPTM4B or YWHAZ” value in assay [4] is recorded as “less apparent”. In assay [5], the “effect of exogenous LAPTM4B or YWHAZ on sensitivity to drug” value is listed as “no significant effect”.

For the compound `COc1cccc2c1C(=O)c1c(O)c3c(c(O)c1C2=O)C[C@@](O)(C(C)=O)C[C@@H]3O[C@H]1C[C@H](N)[C@H](O)[C@H](C)O1` [daunorubicin], the “sensitivity to drug … of LAPTM4B and YWHAZ” value in assay [3] is “increased sensitivity”.

`COc1cccc2c1C(=O)c1c(O)c3c(c(O)c1C2=O)C[C@@](O)(C(=O)CO)C[C@@H]3O[C@H]1C[C@H](N)[C@H](O)[C@H](C)O1` [doxorubicin]: the “nuclear localization of doxorubicin after LAPTM4B siRNA knockdown” value in assay [6] is listed as “substantial increase in nuclear localization”. In addition, the “sensitivity to drug … of LAPTM4B and YWHAZ” value in assay [3] is “increased sensitivity”. Moreover, the “drug-induced apoptosis after knockdown of LAPTM4B or YWHAZ” value in assay [4] is “considerably increased”. Further, the “increase in IC50 of doxorubicin” value is given as 270% in assay [5] (HMEC expressing exogenous LAPTM4B vs control vector, P<0.002) and 394% in assay [5] (HMEC expressing exogenous YWHAZ vs control vector, P=0.0001). The “doxorubicin distribution after down-regulation of LAPTM4B” value in assay [7] (BT549, LAPTM4B-specific siRNA, 48 hours exposure) is listed as “release of doxorubicin from lysosomes”. The “intracellular distribution of doxorubicin autofluorescence” value in assay [7] (BT549 overexpressing LAPTM4B, Lysotracker green DND-26) is “co-localizes with the lysosome marker”.

Take `CC(=O)O[C@H]1C(=O)[C@@]2(C)[C@H]([C@H](OC(=O)c3ccccc3)[C@]3(O)C[C@H](OC(=O)[C@H](O)[C@@H](NC(=O)c4ccccc4)c4ccccc4)C(C)=C1C3(C)C)[C@]1(OC(C)=O)CO[C@@H]1C[C@@H]2O` [paclitaxel]: the “sensitivity to drug … of LAPTM4B and YWHAZ” value in assay [3] is “weaker or no effect”. Besides, the “effect of exogenous LAPTM4B or YWHAZ on sensitivity to drug” value in assay [5] is “no significant effect”.

Take pepstatin A: in assay [1], the “LAPTM4B knockdown-induced Bid truncation and apoptosis” value was “protected”.

For “z-Val-Ala-Asp-fluoromethylketone [z-VAD-FMK]”, in assay [1] (setting [8]), the “Bid truncation after LAPTM4B knockdown” value is recorded as “did not prevent Bid truncation” and the “caspase 3 activation after LAPTM4B knockdown” value was “sufficient to abrogate caspase 3 activation”.
